Legend:
[1] = molecular target: T1, IRAK4 (Homo sapiens (Human), UniProt Q9NWZ3); assay: IRAK4 MSD degradation in OCI-LY10; type: cell-based
Summary of the method: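 OCI-LY10 cells treated with 8-point 1:3 dilutions (top 1 to 10 μM final) for 4 to 24 h at 37° C. Lysate IRAK4 measured by MSD sandwich immunoassay (2H9 capture, Y279 detection, SULFO-TAG anti-rabbit). DC50 from three-parameter logistic fit.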

[2] = molecular target: T1, IRAK4; assay: hPBMC IRAK4 degradation flow assay; type: cell-based; conditions: hPBMC monocyte
Procedure: hPBMC IRAK4 degradation flow assay. Frozen PBMCs were thawed into RPMI with 10% FBS and allowed to recover. On the same day as thawed, PBMCs were plated in 96 well plate, 90 uL per well. Compound plates were prepared and a 10 point, 5-fold dilution was performed with a final DMSO concentration of 0.1%. Compound 10 μL per well was added, sealed and incubated at 37° C., 5% C02 for 20 hours (for 4 hour treatment, compounds were prepared and added the following day). […] Cells were spun down and washed two times with PBS/0.5% BSA, aspirated to pellet and placed into −80° C. freezer until further processing for flow. On the flow run day, PBMC plates were thawed and samples were transferred to PCR plates. The pre-perm staining cocktail (CD3 Ax488/CD8 BUV805/CD14 BUV395/CD16/56 BV711/CD19 BV785) was added to samples and incubated for 30 minutes at room temperature. Samples were washed two times and permeabilized with methanol for 10 minutes at 4° C. […] Samples were washed two times with PBS/BSA and run on a BD LSRFortessa. Mononuclear cells are gated by SSCH/FSCH and single cells. Monocytes are then gated through CD14 positive gate and lymphocytes are gated through CD14 negative gate. To determine absolute DC50s and max degradation values, MFI values were normalized to DMSO max and 20 hour 10 μM min control. Twenty hour dose curves were calculated using a 4 parameter logistic regression curve fit, no constraints (Top doses were removed if hook effects were observed and the bottom was constrained to 0).

[3] = tested on: OCI-LY10; assay: CTG Cell Viability Assay - OCI-LY10; type: cell-based, human; conditions: Homo sapiens, OCI-Ly10, 96 h, OCI-LY10, 4 days; read-out: CTG Cell Viability Assay - OCI-LY10: Average external-IC50
Summary of the method: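 OCI-LY10 cells exposed to 9-dose, 1:3 dilutions from 10 μM top (0.2% DMSO) for 4 days at 37° C, 5% CO2. Viability by CellTiter-Glo luminescence; IC50 from three-parameter logistic fit.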

[4] = OCI-LY10, 4 hrs, read-out: IRAK4 MSD degradation in OCI-LY10 at 4 hrs: DC50
[5] = 20 hrs, read-out: IRAK4 degradation in hPBMC monocyte: DC50
[6] = 20 hr, flow assay, read-out: IRAK4 degradation in hPBMC monocyte at 20 hr: Average external Abs DC50
[7] = OCI-LY10, 4 hrs, MSD, read-out: IRAK4 MSD degradation in OCI-LY10 at 4 hrs: Average external-Abs DC50
[8] = OCI-LY10, 24 hrs, MSD, read-out: IRAK4 MSD degradation in OCI-LY10 at 24 hrs: Average external-Abs DC50

T1 sequence (Q9NWZ3 whole entry): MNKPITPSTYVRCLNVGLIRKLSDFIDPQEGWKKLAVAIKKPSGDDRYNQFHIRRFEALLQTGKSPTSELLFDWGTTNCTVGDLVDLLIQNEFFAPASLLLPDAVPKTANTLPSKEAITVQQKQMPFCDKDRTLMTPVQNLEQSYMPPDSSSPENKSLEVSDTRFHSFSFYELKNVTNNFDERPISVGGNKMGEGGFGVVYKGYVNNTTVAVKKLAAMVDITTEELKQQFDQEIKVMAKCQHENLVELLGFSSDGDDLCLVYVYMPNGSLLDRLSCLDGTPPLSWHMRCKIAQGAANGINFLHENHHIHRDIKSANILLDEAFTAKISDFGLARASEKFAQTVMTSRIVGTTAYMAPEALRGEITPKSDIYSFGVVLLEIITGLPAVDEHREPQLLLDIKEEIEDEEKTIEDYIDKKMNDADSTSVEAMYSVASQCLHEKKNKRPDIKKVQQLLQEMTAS

Compound	DC50 [1, 4] [nM]	DC50 [2, 5] [nM]	DC50 [1, 7] [nM]	IC50 [3] [nM]	other results
C[C@@H]1CN(c2ccn3ncc(C(=O)Nc4cn([C@H]5CC[C@H](CN6CCC(OCC#Cc7cccc8c7n(C)c(=O)n8C7CCC(=O)NC7=O)CC6)CC5)nc4C(F)F)c3n2)C[C@H](C)O1 (some centres unmarked) [I-531]	10 to 100	< 10			
C[C@@H]1CN(c2ccn3ncc(C(=O)Nc4cn([C@H]5CC[C@H](CN6CCC(OCC#Cc7cccc8c7n(C)c(=O)n8C7CCC(=O)NC7=O)CC6)CC5)nc4C(F)F)c3n2)C[C@@H](C)O1 (some centres unmarked) [I-527]	10 to 100	< 10			
CN1C(=O)C(C2CCC(=O)NC2=O)c2cc(C#CCOC3CCN(C[C@H]4CC[C@H](C5N=C(NC(=O)c6cnn7ccc(N8C[C@H]9C[C@@H]8CO9)nc67)C(C(F)F)=N5)CC4)CC3)ccc21 (some centres unmarked) [I-548]	100 to 1000	100 to 1000			
CN(CCCC#Cc1ccc2c(c1)n(C)c(=O)n2C1CCC(=O)NC1=O)C[C@H]1CC[C@H](n2cc(NC(=O)c3cnn4ccc(N5C[C@H]6C[C@@H]5CO6)nc34)c(C(F)F)n2)CC1 (stereo partly drawn) [I-546, 5-((1R,4R)-2-oxa-5-azabicyclo[2.2.1]heptan-5-yl)-N-(3-(difluoromethyl)-1-((1r,4R)-4-(((5-(1-(2,6-dioxopiperidin-3-yl)-3-methyl-2-oxo-2,3-dihydro-1H-benzo [d]imidazol-5-yl)pent-4-yn-1-yl)(methyl)amino)methyl)cyclohexyl)-1H-pyrazol-4-yl)pyrazolo[1,5-a] pyrimidine-3-carboxamide]	100 to 1000	10 to 100			
C[C@H]1CN(c2ccn3ncc(C(=O)Nc4cn([C@H]5CC[C@H](CN6CCC(OCC#Cc7cccc8c7n(C)c(=O)n8C7CCC(=O)NC7=O)CC6)CC5)nc4C(F)F)c3n2)C[C@H](C)O1 (some centres unmarked) [I-536]	10 to 100	< 10			
Cn1c(=O)n(C2CCC(=O)NC2=O)c2cccc(CCCOCCCC(CNC[C@H]3CC[C@H](n4cc(NC(=O)c5cnn6ccc(N7C[C@H]8C[C@@H]7CO8)nc56)c(C(F)F)n4)CC3)C(=O)O)c21 (some centres unmarked) [I-470]	100 to 1000	100 to 1000			
Cn1c(=O)n(C2CCC(=O)NC2=O)c2cccc(C(=O)N3CCC(OC[C@H]4CC[C@H](n5cc(NC(=O)c6cnn7ccc(N8C[C@H]9C[C@@H]8CO9)nc67)c(C(F)F)n5)CC4)CC3)c21 (some centres unmarked) [I-427]					DC50 [2, 6]: 100 to 1000 nM
C[C@@H](CCc1cccc2c1n(C)c(=O)n2C1CCC(=O)NC1=O)OC1CCN(C[C@H]2CC[C@H](n3cc(NC(=O)c4cnn5ccc(N6C[C@H]7C[C@@H]6CO7)cc45)c(C(F)F)n3)CC2)CC1 (some centres unmarked) [I-545]	< 10	< 10			
Cn1c(=O)n(C2CCC(=O)NC2=O)c2cccc(C#CCOC3CCN(C[C@H]4CC[C@H](n5cc(NC(=O)c6cnn7ccc(N8CCOC(C)(C)C8)nc67)c(C(F)F)n5)CC4)CC3)c21 (some centres unmarked) [I-533]	10 to 100	< 10			
Cn1c(=O)n(C2CCC(=O)NC2=O)c2cccc(CCCOC3CCN(C[C@H]4CC[C@H](n5ncc(NC(=O)c6cnn7ccc(N8CCOCC8)nc67)c5C(F)F)CC4)CC3)c21 (some centres unmarked) [I-468]	100 to 1000	100 to 1000			
Cn1c(=O)n(C2CCC(=O)NC2=O)c2cccc(CCCCC3CCN(Cc4ccc(-n5cc(NC(=O)c6cnn7ccc(N8C[C@H]9C[C@@H]8CO9)nc67)c(C(F)F)n5)cc4)CC3)c21 (some centres unmarked) [I-436]					DC50 [2, 6]: 100 to 1000 nM
Cn1c(=O)n(C2CCC(=O)NC2=O)c2cccc(CCCOC3CCN(C[C@H]4CC[C@H](n5cc(NC(=O)c6cnn7ccc(N8CCOC9(CCC9)C8)nc67)c(C(F)F)n5)CC4)CC3)c21 (some centres unmarked) [I-542]	10 to 100	< 10			
Cn1c(=O)n(C2CCC(=O)NC2=O)c2cccc(C#CCOC3CCN(C[C@H]4CC[C@H](n5cc(NC(=O)c6cnn7ccc(N8CCOC9(CCC9)C8)nc67)c(C(F)F)n5)CC4)CC3)c21 (some centres unmarked) [I-541]	10 to 100	< 10			
Cn1c(=O)n(C2CCC(=O)NC2=O)c2cccc(C#CCC3CCN(C[C@H]4CC[C@H](C5N=C(NC(=O)c6cnn7ccc(N8C[C@H]9CC[C@@H](C8)O9)nc67)C(C(F)F)=N5)CC4)CC3)c21 (some centres unmarked) [I-534]	10 to 100	< 10			
Cn1c(=O)n(C2CCC(=O)NC2=O)c2cccc(CN3CC4(CCN(C(=O)[C@H]5CC[C@H](n6cc(NC(=O)c7cnn8ccc(N9C[C@H]%10C[C@@H]9CO%10)nc78)c(C(F)F)n6)CC5)CC4)C3)c21 (some centres unmarked) [I-429]					DC50 [2, 6]: < 10 nM
CN(C[C@H]1OC[C@H](n2cc(NC(=O)c3cnn4ccc(N5C[C@H]6C[C@@H]5CO6)nc34)c(C(F)F)n2)CO1)C1CCN(Cc2cccc3c2n(C)c(=O)n3C2CCC(=O)NC2=O)CC1 (stereo partly drawn) [I-507, N-[3-(difluoromethyl)-1-[2-[[[1-[[1-(2,6-dioxo-3-piperidyl)-3-methyl-2-oxo-benzimidazol-4-yl]methyl]-4-piperidyl]-methyl-amino]methyl]-1,3-dioxan-5-yl]pyrazol-4-yl]-5-[(1R,4R)-2-oxa-5-azabicyclo [2.2.1]heptan-5-yl] pyrazolo[1,5-a] pyrimidine-3-carboxamide]		< 10			
O=C1CCC(N2C(=O)c3cccc(NCC4CCN(C[C@H]5CC[C@H](n6cc(NC(=O)c7cnn8ccc(N9CCOCC9)nc78)c(C(F)F)n6)CC5)CC4)c3C2=O)C(=O)N1 (some centres unmarked) [I-385]			> 1000	< 50	DC50 [1, 8]: 10 to 100 nM
O=C1CCC(N2C(=O)c3cccc(NCC4CCN(Cc5ccc(-n6cc(NC(=O)c7cnn8ccc(N9C[C@H]%10C[C@@H]9CO%10)nc78)c(C(F)F)n6)cc5)CC4)c3C2=O)C(=O)N1 (some centres unmarked) [I-489]	100 to 1000			< 50	DC50 ([1]; OCI-LY10, 24 hrs, read-out: IRAK4 MSD degradation in OCI-LY10 at 24 hrs: DC50): > 1000 nM
CN(C[C@H]1CC[C@H](n2cc(NC(=O)c3cnn4ccc(N5CCOCC5)nc34)c(C(F)F)n2)CC1)[C@H]1CC[C@H](Nc2cccc3c2C(=O)N(C2CCC(=O)NC2=O)C3=O)CC1 (some centres unmarked) [I-355]			10 to 100	100 to 500	DC50 [1, 8]: < 10 nM
Cn1c(=O)n(C2CCC(=O)NC2=O)c2cccc(CCCN3CCC4(CC3)CCN(C(=O)C3CCC(n5cc(NC(=O)c6cnn7ccc(N8C[C@H]9C[C@@H]8CO9)nc67)c(C(F)F)n5)CC3)CC4)c21 (some centres unmarked) [I-435]					DC50 [2, 6]: < 10 nM
CN(CCC1CCN(c2cccc3c2C(=O)N(C2CCC(=O)NC2=O)C3=O)CC1)C[C@H]1CC[C@H](n2cc(NC(=O)C3CNN4C=CC(N5CCOCC5)=NC34)c(C(F)F)n2)CC1 (some centres unmarked) [I-223]			10 to 100	> 1000	
Cn1c(=O)n(C2CCC(=O)NC2=O)c2cccc(CN3CCC(O[C@H]4C[C@H](N(C)C[C@H]5CC[C@H](n6cc(NC(=O)c7coc(-c8ccnc(NCC9CC9)c8)n7)c(C(F)F)n6)CC5)C4)CC3)c21 (some centres unmarked) [I-249]			10 to 100	< 50	
CC[C@@H]1[C@H](F)C(=O)N[C@@H]1COc1ncc(C#CC2CCN(CCCC3CCN(Cc4ccc5c(c4)n(C)c(=O)n5C4CCC(=O)NC4=O)CC3)CC2)c2cc(C(N)=O)c(OC)cc12 (some centres unmarked) [I-193]			100 to 1000	> 1000	DC50 [1, 8]: 10 to 100 nM
O=C1CCC(N2C(=O)c3cccc(CCCOC4CCN(C[C@H]5CC[C@H](n6cc(NC(=O)c7coc(-c8ccnc(NCC9CC9)c8)n7)c(C(F)F)n6)CC5)CC4)c3C2=O)C(=O)N1 (some centres unmarked) [I-171]			10 to 100	100 to 500	
CN(CCCN1CCO[C@@H](CNc2cccc3c2C(=O)N(C2CCC(=O)NC2=O)C3=O)C1)C[C@H]1CC[C@H](n2cc(NC(=O)c3cnn4ccc(N5C[C@H]6C[C@@H]5CO6)nc34)c(C(F)F)n2)CC1 (some centres unmarked) [I-347]			100 to 1000	< 50	DC50 [1, 8]: 10 to 100 nM
O=C1CCC(N2C(=O)c3cccc(NCCCOC4CCN(Cc5ccc(-n6cc(NC(=O)c7cnn8ccc(N9C[C@H]%10CC9CO%10)nc78)c(C(F)F)n6)cc5)CC4)c3C2=O)C(=O)N1 (some centres unmarked) [I-438]			100 to 1000	50 to 100	DC50 [1, 8]: 10 to 100 nM
Cc1ccc(-n2nc(C3CCN(CCCCCOCCCc4ccc5c(c4)n(C)c(=O)n5C4CCC(=O)NC4=O)CC3)cc2NC(=O)c2cnn3cccnc23)nc1 (centres unmarked) [I-273]			> 1000	> 1000	DC50 [1, 8]: > 1000 nM
Cn1c(=O)n(C2CCC(=O)NC2=O)c2cccc(CCCOC3CCN(C[C@H]4CC[C@H](n5cc(NC(=O)c6cnn7ccc(N8C(=O)N[C@@H]9[C@H]8CCCC9(F)F)nc67)c(C(F)F)n5)CC4)CC3)c21 (some centres unmarked) [I-291]			10 to 100	< 50	DC50 [1, 8]: 10 to 100 nM
O=C1CCC(N2C(=O)c3cccc(NCCCOC4CCN(Cc5ccc(-n6cc(NC(=O)c7cnn8ccc(N9CCOCC9)nc78)c(C(F)F)n6)cc5)CC4)c3C2=O)C(=O)N1 (centres unmarked) [I-403]			> 1000	50 to 100	DC50 [1, 8]: 10 to 100 nM
